Experimental findings from patent US20240366594A1, “Small Molecule Inhibitors of Formation of Neutrophil-Derived Extracellular Traps (NETosis) and Uses Thereof” (The Brigham and Women's Hospital, Inc., priority 2021, published 2024) are described below.

SMILES strings stand for the structures.

Test [1] relates to human neutrophils. In words: ROS production (luminol-HRP luminescence) in human neutrophils. Type of test: cell-based. The settings on record: ricolinostat 10 μM, 1 μM PMA 3 h; FIG. 1G left. Here is the method: (§1) FIGS. 1A-H. Class I/II HDACs drive NET formation • (A and B) Freshly purified human (A) or mouse (B) neutrophils were treated with the indicated HDAC inhibitors at different doses (10, 2, 0.4, 0.08 μM), or with GSK484 (10 μM), for 1 h and then stimulated with 1 μM PMA for 3 h. Cells were fixed and stained with anti-citrullinated histone H3 (CitH3) antibody. NETosis induction was measured as the level of anti-CitH3 fluorescent signal. PMA alone represents 100% of NET induction. “-”: Cells treated with the highest dose of the indicated drug but not activated with PMA. • (C and D) Human neutrophils were treated, or not, with ricolinostat or GSK484 and then stimulated with 1 μM PMA. NETosis induction was measured as area of nuclei stained with DAPI. (C) 3D reconstruction of nuclei in each treatment (grid size 7.8 μm). (D) Quantification of DAPI signal from multiple fields of view (D) (n=9 for unstimulated, not pretreated with any drug [NT] and ricolinostat, n=7 for GSK484). • (E and F) Human neutrophils were treated as in (C-D), and immunoblot analysis of the indicated proteins was performed. Relative quantification of band intensity was analyzed with ImageJ software (F). White violins plots depict the quantification of histone H3 acetylation; red violin plots depict the quantification of histone H3 citrullination. […] ROS production was measured by luminescence with luminol-HRP. […]

Test [2] concerns human neutrophils. The test can be described thus: Expansion of nuclei (area of DAPI-stained nuclei) in PMA-treated human neutrophils. Type of test: cell-based. Particulars: 1 μM PMA; FIGS. 1C and 1D. As to the method:
as §1

Another test has as its system Murine neutrophils. The test can be described thus: ROS production (luminol-HRP luminescence) in murine neutrophils. Type of test: cell-based, mouse. The settings on record: ricolinostat 10 μM, 1 μM PMA 3 h; FIG. 1G right. Here is the method:
as §1

Consider `O=C(CCCCCCNC(=O)c1cnc(N(c2ccccc2)c2ccccc2)nc1)NO` [ricolinostat], for which the “reactive oxygen species (ROS) production” value in the test with human neutrophils [1] and in the test with Murine neutrophils was “did not alter” in each case. For the same compound, the “expansion of nuclei (area of nuclei stained with DAPI)” value with human neutrophils [2] was “significantly reduced”.
